Data taken from the supplement of paper PMC11451515.

Test system: NOMO1
Assay: cell viability relative to DMSO control; higher = less cytotoxic
Details: 48 h
Summary of the method: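 Viability is a per-plate percentage relative to DMSO wells, with cell-free wells as background. CellTiter-Glo One luminescence was read after 48 h at 37°C on 1536-well plates (5 μl) of NOMO1 or SEM (500 cells/well) or P12-Ichikawa (1000 cells/well) leukemia cells. The cells had been adapted for at least four passages in each medium and pin-dosed with library compounds in DMSO from 47 μM to 0.79 nM in 11 threefold steps.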

[1] = RPMI 5 mM glucose + 10% FBS, 0.000781 µM
[2] = RPMI 5 mM glucose + 10% FBS, 0.00234 µM
[3] = RPMI 5 mM glucose + 10% FBS, 0.00702 µM
[4] = RPMI 5 mM glucose + 10% FBS, 0.0211 µM
[5] = RPMI 5 mM glucose + 10% FBS, 0.0632 µM
[6] = RPMI 5 mM glucose + 10% FBS, 0.19 µM
[7] = RPMI 5 mM glucose + 10% FBS, 0.569 µM
[8] = RPMI 5 mM glucose + 10% FBS, 1.71 µM
[9] = RPMI 5 mM glucose + 10% FBS, 5.12 µM
[10] = RPMI 5 mM glucose + 10% FBS, 15.4 µM
[11] = RPMI 5 mM glucose + 10% FBS, 46.1 µM
[12] = RPMI 5 mM glucose + 10% dialyzed FBS, 0.000781 µM
[13] = RPMI 5 mM glucose + 10% dialyzed FBS, 0.00234 µM
[14] = RPMI 5 mM glucose + 10% dialyzed FBS, 0.00702 µM
[15] = RPMI 5 mM glucose + 10% dialyzed FBS, 0.0211 µM
[16] = RPMI 5 mM glucose + 10% dialyzed FBS, 0.0632 µM
[17] = RPMI 5 mM glucose + 10% dialyzed FBS, 0.19 µM
[18] = RPMI 5 mM glucose + 10% dialyzed FBS, 0.569 µM
[19] = RPMI 5 mM glucose + 10% dialyzed FBS, 1.71 µM
[20] = RPMI 5 mM glucose + 10% dialyzed FBS, 5.12 µM
[21] = RPMI 5 mM glucose + 10% dialyzed FBS, 15.4 µM
[22] = RPMI 5 mM glucose + 10% dialyzed FBS, 46.1 µM
[23] = HPLM + 10% dialyzed FBS, 0.000781 µM
[24] = HPLM + 10% dialyzed FBS, 0.00234 µM
[25] = HPLM + 10% dialyzed FBS, 0.00702 µM
[26] = HPLM + 10% dialyzed FBS, 0.0211 µM
[27] = HPLM + 10% dialyzed FBS, 0.0632 µM
[28] = HPLM + 10% dialyzed FBS, 0.19 µM
[29] = HPLM + 10% dialyzed FBS, 0.569 µM
[30] = HPLM + 10% dialyzed FBS, 1.71 µM
[31] = HPLM + 10% dialyzed FBS, 5.12 µM
[32] = HPLM + 10% dialyzed FBS, 15.4 µM
[33] = HPLM + 10% dialyzed FBS, 46.1 µM

SMILES | cell viability [1] | cell viability [2] | cell viability [3] | cell viability [4] | cell viability [5] | cell viability [6] | cell viability [7] | cell viability [8] | cell viability [9] | cell viability [10] | cell viability [11] | cell viability [12] | cell viability [13] | cell viability [14] | cell viability [15] | cell viability [16] | cell viability [17] | cell viability [18] | cell viability [19] | cell viability [20] | cell viability [21] | cell viability [22] | cell viability [23] | cell viability [24] | cell viability [25] | cell viability [26] | cell viability [27] | cell viability [28] | cell viability [29] | cell viability [30] | cell viability [31] | cell viability [32] | cell viability [33]
CC[C@H]1OC(=O)[C@H](C)C(=O)[C@H](C)[C@@H](O[C@H]2O[C@H](C)C[C@H](N(C)C)[C@H]2O)[C@](C)(OC)C[C@@H](C)C(=O)[C@H](C)[C@H]2N(CCCCn3cnc(-c4cccnc4)c3)C(=O)O[C@]12C | 127% | 118% | 118% | 111% | 115% | 120% | 104% | 116% | 118% | 107% | 103% | 102% | 121% | 110% | 109% | 113% | 104% | 100% | 98.8% | 116% | 107% | 95.9% | – | – | – | – | – | – | – | – | – | – | –
O=C(CCCN1CCN(c2ccc(F)cc2)CC1)NC1c2ccccc2CSc2ccccc21 (configuration not stated) | 135% | 109% | 108% | 125% | 126% | 117% | 112% | 117% | 74% | 103% | 71.1% | 121% | 120% | 125% | 114% | 118% | 112% | 113% | 106% | 99.9% | 90.8% | 58% | – | – | – | – | – | – | – | – | – | – | –
COc1cc[nH]c2ncc(C(=O)C(=O)N3CCN(C(=O)c4ccccc4)C[C@H]3C)c1-2 | 99.9% | 101% | 101% | 101% | 99% | 99.2% | 100% | 99.1% | 107% | 105% | 102% | 109% | 117% | 114% | 115% | 119% | 108% | 108% | 105% | 99.2% | 103% | 91.9% | 137% | 121% | 111% | 105% | 121% | 108% | 106% | 108% | 120% | 100% | 99.1%
COc1cccc2c1C(=O)c1c(O)c3c(c(O)c1C2=O)C[C@@](O)(C(=O)CO)C[C@@H]3O[C@H]1C[C@H](N)[C@H](O)[C@H](C)O1 | 116% | 111% | 107% | 115% | 102% | 102% | 108% | 102% | 7.5% | 25.6% | 6.28% | 112% | 116% | 105% | 104% | 107% | 110% | 100% | 104% | 8.85% | 34.3% | 5.09% | 112% | 127% | 108% | 120% | 96.2% | 108% | 116% | 90.2% | 8.77% | 37.4% | 6.99%
CNCC[C@H](Oc1cccc2ccccc12)c1cccs1 | 108% | 122% | 122% | 116% | 120% | 112% | 124% | 110% | 116% | 44.5% | 26.3% | 105% | 127% | 116% | 119% | 137% | 113% | 112% | 114% | 121% | 46.7% | 27.4% | 117% | 119% | 145% | 116% | 134% | 117% | 130% | 123% | 90.8% | 41.5% | 26.5%
Nc1ncnc2c1ncn2[C@@H]1O[C@H](CO)C[C@H]1O | 85.7% | 87% | 94.7% | 87.9% | 93% | 84.4% | 88% | 80.7% | 91.1% | 82.5% | 92.4% | 103% | 109% | 94.9% | 103% | 103% | 90.2% | 87.8% | 92.2% | 85.6% | 91.2% | 92.1% | 105% | 97.1% | 97.1% | 102% | 94.3% | 101% | 73% | 87.4% | 95.2% | 81.7% | 79.8%
CC(C)c1cc(C(C)C)c(CC(=O)N[S+](=O)([O-])Oc2c(C(C)C)cccc2C(C)C)c(C(C)C)c1 | 96.3% | 89.8% | 88.6% | 82.8% | 94.8% | 87.8% | 105% | 93% | 98.3% | 90.5% | 86.9% | 95.9% | 89.4% | 91.4% | 89.7% | 87.4% | 91.4% | 97% | 84.5% | 90.8% | 87.9% | 65.3% | 103% | 110% | 93.9% | 114% | 112% | 88.6% | 92.2% | 98.8% | 100% | 92.5% | 88.9%
CC(C(=O)O)c1ccc2c(c1)CC(=O)c1ccccc1S2 (configuration not stated) | 104% | 115% | 116% | 112% | 107% | 106% | 103% | 103% | 103% | 22.3% | 21.2% | 99.6% | 116% | 94.2% | 105% | 113% | 105% | 103% | 85.3% | 87.7% | 23% | 24% | 114% | 106% | 113% | 120% | 121% | 128% | 109% | 87.2% | 68.2% | 25.7% | 30.6%
